Source: BindingDB's records for patent US20240317732 (Department of Health And Human Service, 2024)

target: Proteasomal ubiquitin receptor ADRM1 (Homo sapiens, UniProt Q16186); assay: Isothermal Titration Calorimetry Experiments
Experimental: ITC experiments were performed at 25° C. on a MicroCal iTC200 system (Malvern, PA, USA). hRpn13 Pru, XL5, XL5 derivative, or RA190 were prepared in buffer C. One aliquot of 0.5 μL followed by 17 or 18 aliquots of 2.1 μL of 200 μM hRpn13 Pru was injected at 750 r.p.m. into a calorimeter cell (volume […]) that contained 20 μM XL5, XL5 derivative, or RA190. Blank experiments were performed by replacing XL5, XL5 derivative, or RA190 with buffer in the cell and the resulting data subtracted from the experimental data during analyses. The integrated interaction heat values were normalized as a function of protein concentration and the data were fit with MicroCal Origin 7.0-based software implementing the One Set of Sites model to yield binding affinity Ka (1/Kd), stoichiometry, and other thermodynamic parameters.

Sequence of Proteasomal ubiquitin receptor ADRM1 (Q16186 whole entry): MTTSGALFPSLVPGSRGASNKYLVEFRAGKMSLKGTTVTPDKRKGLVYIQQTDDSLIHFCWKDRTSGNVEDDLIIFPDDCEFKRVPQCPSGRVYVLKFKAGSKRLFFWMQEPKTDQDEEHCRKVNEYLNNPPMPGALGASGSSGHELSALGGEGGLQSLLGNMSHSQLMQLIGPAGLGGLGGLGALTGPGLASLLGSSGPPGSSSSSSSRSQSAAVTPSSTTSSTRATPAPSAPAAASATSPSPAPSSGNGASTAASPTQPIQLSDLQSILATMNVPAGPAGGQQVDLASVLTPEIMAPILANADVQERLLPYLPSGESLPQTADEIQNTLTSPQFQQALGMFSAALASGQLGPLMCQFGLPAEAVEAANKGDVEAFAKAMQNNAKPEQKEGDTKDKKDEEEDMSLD

Row | SMILES | Kd
1 | N#C/C(=C\c1cccc(NC(=O)c2ccccc2Cl)c1)C(=O)Nc1ccccc1C(=O)O [US20240317732, Compound XL23] | 3.88 µM
2 | N#CC(=Cc1cccc(NC(=O)c2ccc(NCC(=O)O)cc2)c1)C(=O)Nc1ccccc1C(=O)O [US20240317732, Compound XL25] | 4.12 µM
3 | Cc1ccc(C(=O)Nc2cccc(C=C(C#N)C(=O)Nc3ccccc3C(=O)O)c2)nc1O [US20240317732, Compound XL27] | 3.94 µM
4 | Cc1ccc(C(=O)Nc2cccc(C=C(C#N)C(=O)Nc3cccc(C(F)(F)F)c3C(=O)O)c2)cc1 [US20240317732, Compound XL30] | 12.4 µM

Further lines, results first:

Row | Kd | SMILES
5 | 3.82 µM | COc1ccc(NC(=O)/C(C#N)=C/c2cccc(NC(=O)c3ccc(C)cc3)c2)c(C(=O)O)c1 [US20240317732, Compound XL28]
6 | 7.81 µM | CNc1ccc(NC(=O)/C(C#N)=C/c2cccc(NC(=O)c3ccc(C)cc3)c2)c(C(=O)O)c1 [US20240317732, Compound XL29]
